From patent US10738056B2 (Aduro BioTech, Inc., priority 2017, dated 2020)

What was measured:
[1] = tested on: MCP-1/CCL2 secretion by Trex1-KO BMM; test: Inhibition of MCP-1/CCL2 secretion by Trex1-KO bone marrow-derived macrophages; format: cell-based, mice; parameters: key to BMM IC50 M (MCP-1): A: an IC50 value less than 5 μM; B: an IC50 value between 5 and 20 μM; where an IC50 value could not be calculated from the data; details: MCP-1 secretion
Experimental: (§1) A cellular assay can be used to asses the compounds of the invention for their ability to inhibit cytokine production. Bone marrow macrophages harvested from mice can be used to determine response as a function of compound concentration.
(§2) The inhibition of secreted cytokine was measured in bone marrow-derived macrophages (BMMs) from diseased mice to evaluate the potency of compounds of the invention as described herein. […] To derive bone marrow macrophages, marrow extracted from the femurs and tibias were harvested from Trex1-KO mice was cultured in growth media supplemented with macrophage colony-stimulating factor (M-CSF). Differentiated BMM were harvested and frozen for subsequent experimentation. For treatment with compound C1089 (see Example 13), a frozen stock of Trex1-KO BMM was thawed and 1×10^5 cells were plated in 96 well format. BMMs were treated with a dilution series of C1089 and incubated overnight at 37° C. 5% CO2, at which point cellular supernatants were harvested and stored at −80° C. for subsequent analysis. The media used for this dilution series was without FBS. Remaining cells were evaluated for viability using Cell Titer Glo 2.0 kit according to the manufacturer instructions. BMM supernatants were evaluated for the secreted cytokine […] (RANTES/CCL5) or for secreted cytokine monocyte chemoattractant protein 1 (MCP-1/CCL2) using cytometric bead array mouse Flex Set kits (BD Biosciences). Cytokine concentration was calculated from a standard curve and normalized to vehicle (DMSO) treated cells.

[2] = target: Human cGAS amino acids 155-522 (Homo sapiens (Human), UniProt Q8N884); test: cGAS biochemical activity assay (ATP remaining, Kinase-Glo Max luminescence); details: human cGAS 155-522, ATP remaining (Kinase-Glo Max); read-out: cGAS IC50
Human cGAS amino acids 155-522, sequence (Q8N884 157-522): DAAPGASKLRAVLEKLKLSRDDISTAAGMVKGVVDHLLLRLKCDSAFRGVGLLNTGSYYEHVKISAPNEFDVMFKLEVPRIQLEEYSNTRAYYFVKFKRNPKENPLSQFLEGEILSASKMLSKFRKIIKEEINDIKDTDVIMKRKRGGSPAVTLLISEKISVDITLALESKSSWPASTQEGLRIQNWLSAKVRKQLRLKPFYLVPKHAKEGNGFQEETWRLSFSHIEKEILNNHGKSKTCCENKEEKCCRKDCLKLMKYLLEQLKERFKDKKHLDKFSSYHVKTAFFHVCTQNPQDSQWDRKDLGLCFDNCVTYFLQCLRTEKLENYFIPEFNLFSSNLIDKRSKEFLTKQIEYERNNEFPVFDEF

[3] = tested on: cGAS/STING pathway in THP1 cells; test: THP1 cell-based cGAS/STING pathway activity assay (IRF-3-linked luciferase reporter); details: Homo sapiens, THP-1
Procedure, shortened: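 THP1 cells carrying an IRF-3-driven luciferase reporter were read across a range of compound concentrations, and IC50 values were derived from these concentration responses; the assay upper limit was 100 μM.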

[4] = tested on: RANTES/CCL5 secretion by Trex1-KO BMM; test: Inhibition of RANTES/CCL5 secretion by Trex1-KO bone marrow-derived macrophages; format: cell-based, mice; parameters: key to BMM IC50 R (RANTES): A: an IC50 value less than 5 μM; B: an IC50 value between 5 and 20 μM; where an IC50 value could not be calculated from the data; details: RANTES secretion
Experimental: as §1, §2

Row | Structure (SMILES) | BMM IC50 M (MCP-1) [1] | IC50 [2] | IC50 [3] | BMM IC50 R (RANTES) [4] | IC50 ([1]; Mus musculus, Macrophage, read-out: BMM IC50 M (MCP-1)) | IC50 ([4]; Mus musculus, Macrophage, read-out: BMM IC50 R (RANTES))
1 | Cc1[nH]c2c(-c3ccccc3)c(C(F)(F)F)nn2c(=O)c1-c1nc2c(OCC(=O)O)cccc2o1 [Compound C1117, 2-((2-(5-methyl-7-oxo-3-phenyl-2-(trifluoromethyl)-4,7-dihydropyrazolo[1,5-a]pyrimidin-6-yl)benzo[d]oxazol-4-yl)oxy)acetic acid] | C | < 20 µM | > 100 µM | C |  | 
2 | COc1c(C#N)ccc2oc(-c3c(C)[nH]c4c(-c5ccccc5)c(C(F)(F)F)nn4c3=O)nc12 [Compound C1126, 4-methoxy-2-(5-methyl-7-oxo-3-phenyl-2-(trifluoromethyl)-4,7-dihydropyrazolo[1,5-a]pyrimidin-6-yl)benzo[d]oxazole-5-carbonitrile] | C | < 20 µM | 20 to 100 µM | C |  | 
3 | COc1ccc(Br)c2oc(-c3c(C)[nH]c4c(-c5ccccc5)c(C(F)(F)F)nn4c3=O)nc12 [Compound C1081, 6-(7-bromo-4-methoxybenzo[d]oxazol-2-yl)-5-methyl-3-phenyl-2-(trifluoromethyl)pyrazolo[1,5-a]pyrimidin-7(4H)-one] |  | < 20 µM | < 20 µM |  | 5 to 20 µM | 5 to 20 µM
4 | Cc1[nH]c2c(-c3ccccc3)c(C(F)(F)F)nn2c(=O)c1-c1nc2c(O)cccc2o1 [Compound C1053, 6-(4-hydroxybenzo[d]oxazol-2-yl)-5-methyl-3-phenyl-2-(trifluoromethyl)pyrazolo[1,5-a]pyrimidin-7(4H)-one] | C | < 20 µM | 20 to 100 µM | C |  | 
5 | COCc1[nH]c2c(-c3ccccc3)c(C(F)(F)F)nn2c(=O)c1-c1c(COC)[nH]c2c(-c3ccccc3)c(C(F)(F)F)nn2c1=O [Compound C1029, 5,5′-bis(methoxymethyl)-3,3′-diphenyl-2,2′-bis(trifluoromethyl)-[6,6′-bipyrazolo[1,5-a]pyrimidine]-7,7′(4H,4′H)-dione] | C | 20 to 250 µM |  | C |  | 
6 | Cc1[nH]c2c(-c3ccccc3)c(C(F)(F)F)nn2c(=O)c1-c1nc2ccccc2n1C1CCCCC1 [Compound C1190, 6-(1-cyclohexyl-1H-benzo[d]imidazol-2-yl)-5-methyl-3-phenyl-2-(trifluoromethyl)pyrazolo[1,5-a]pyrimidin-7(4H)-one] | C | 20 to 250 µM |  | C |  | 
7 | COc1cccc2c1nc(-c1c(C)[nH]c3c(-c4ccccc4)c(C(F)(F)F)nn3c1=O)n2C1CCCCC1 [Compound C1176, 6-(1-cyclohexyl-4-methoxy-1H-benzo[d]imidazol-2-yl)-5-methyl-3-phenyl-2-(trifluoromethyl)pyrazolo[1,5-a]pyrimidin-7(4H)-one] | C | 20 to 250 µM |  | C |  | 
8 | COc1cccc2oc(-c3c(C4CCC(CO)C4)[nH]c4c(-c5ccccc5)c(C(F)(F)F)nn4c3=O)nc12 (stereo not shown) [Compound C1236, 5-(3-(hydroxymethyl)cyclopentyl)-6-(4-methoxybenzo[d]oxazol-2-yl)-3-phenyl-2-(trifluoromethyl)pyrazolo[1,5-a]pyrimidin-7(4H)-one] | C | < 20 µM |  | C |  | 
9 | COc1cccc2oc(-c3c(CC(=O)O)[nH]c4c(-c5ccccc5)c(C(F)(F)F)nn4c3=O)nc12 [Compound C1147, 2-(6-(4-methoxybenzo[d]oxazol-2-yl)-7-oxo-3-phenyl-2-(trifluoromethyl)-4,7-dihydropyrazolo[1,5-a]pyrimidin-5-yl)acetic acid] | C | 20 to 250 µM |  | C |  | 
